Experimental data: ChEMBL document CHEMBL1138060, “3-arylimino-2-indolones are potent and selective galanin GAL3 receptor antagonists” (J Med Chem, 2006)
Values belong to the compound of their own block, whether it stands above or below them. Calls of active or inactive are those of the source. The calls are words filed in the database; no cut-off is given here.

What was measured:
Galanin receptor type 3 = target: T1, Galanin receptor type 3 (Homo sapiens, UniProt O60755); experiment: Displacement of [125I]galanin from human GAL3
T1 sequence (O60755 whole entry): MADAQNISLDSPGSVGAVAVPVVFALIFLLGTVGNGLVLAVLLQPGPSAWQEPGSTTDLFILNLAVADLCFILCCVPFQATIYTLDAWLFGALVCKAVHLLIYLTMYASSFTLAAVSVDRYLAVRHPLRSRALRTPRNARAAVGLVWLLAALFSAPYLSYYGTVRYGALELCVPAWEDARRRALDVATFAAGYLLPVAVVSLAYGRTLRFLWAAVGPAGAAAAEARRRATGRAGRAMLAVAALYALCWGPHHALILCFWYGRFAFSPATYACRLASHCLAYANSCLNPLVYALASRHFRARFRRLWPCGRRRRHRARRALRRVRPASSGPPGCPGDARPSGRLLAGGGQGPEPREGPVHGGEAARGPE

[1] = Drug level in rat plasma at 30 mg/kg, ip after 2 hrs; type: ADME, organism-based; parameters: dose 30 mg/kg, route intraperitoneal
[2] = target: T2, 5-hydroxytryptamine receptor 4 (Homo sapiens, UniProt Q13639); experiment: Agonist activity at human 5HT4 upto 10 uM; type: functional
[3] = Drug level in rat plasma at 30 mg/kg, ip after 4 hrs; type: ADME, organism-based; parameters: dose 30 mg/kg, route intraperitoneal
[4] = Drug level in rat brain at 30 mg/kg, ip after 4 hrs; type: ADME, organism-based; parameters: dose 30 mg/kg, route intraperitoneal; conditions: read-out: Drug uptake
[5] = Drug level in rat plasma at 10 mg/kg, pp after 2 hrs; type: ADME, organism-based; parameters: dose 10 mg/kg
[6] = Drug level in rat brain at 30 mg/kg, ip after 2 hrs; type: ADME, organism-based; parameters: dose 30 mg/kg, route intraperitoneal; conditions: read-out: Drug uptake
[7] = Drug level in rat plasma at 10 mg/kg, sc after 2 hrs; type: ADME, organism-based; parameters: dose 10 mg/kg, route subcutaneous
[8] = target: T2, 5-hydroxytryptamine receptor 4; experiment: Binding affinity to human 5HT4
[9] = target: T2, 5-hydroxytryptamine receptor 4; experiment: Antagonist activity against human 5HT4 upto 10 uM; type: functional
[10] = Drug level in rat brain at 10 mg/kg, sc after 2 hrs; type: ADME, organism-based; parameters: dose 10 mg/kg, route subcutaneous; conditions: read-out: Drug uptake

T2 sequence (Q13639 whole entry): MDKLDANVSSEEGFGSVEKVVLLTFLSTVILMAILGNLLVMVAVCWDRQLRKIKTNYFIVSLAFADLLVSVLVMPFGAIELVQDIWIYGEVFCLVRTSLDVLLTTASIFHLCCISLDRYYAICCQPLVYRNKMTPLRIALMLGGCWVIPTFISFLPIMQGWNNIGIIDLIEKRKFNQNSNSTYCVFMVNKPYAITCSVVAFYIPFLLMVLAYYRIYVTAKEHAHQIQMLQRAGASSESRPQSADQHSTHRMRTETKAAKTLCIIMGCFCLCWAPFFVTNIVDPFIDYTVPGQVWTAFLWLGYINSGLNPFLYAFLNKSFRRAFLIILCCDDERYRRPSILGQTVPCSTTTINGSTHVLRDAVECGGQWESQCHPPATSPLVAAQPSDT

SMILES: O=C1Nc2ccccc2/C1=N\c1cccc(C(F)(F)F)c1
- Ki (Galanin receptor type 3): 596 nM

SMILES: O=C1Nc2ccccc2/C1=N\c1ccc(Cl)cc1
- Ki (Galanin receptor type 3): 850 nM

SMILES: COc1ccc(/N=C2/C(=O)Nc3ccccc32)cc1
- Ki (Galanin receptor type 3): > 10000 nM

SMILES: O=C1/C(=N/c2cccc(C(F)(F)F)c2)c2ccccc2N1c1ccccc1
- concentration at 2 h [1]: 780 ng/mL
- Activity [2]: inactive
- concentration at 4 h [3]: 1680 ng/mL
- concentration at 4 h [4]: 1210 ng/g
- concentration at 2 h [5]: 90 ng/mL
- concentration at 2 h [6]: 1060 ng/g
- concentration at 2 h [7]: 990 ng/mL
- Ki [8]: 72 nM
- Activity [9]: inactive
- concentration at 2 h [10]: 350 ng/g

Continued by falling Ki (Galanin receptor type 3), values first:

- Ki (Galanin receptor type 3): 437 nM
SMILES: O=C1Nc2ccccc2/C1=N\c1cccc(Cl)c1Cl

- Ki (Galanin receptor type 3): 150 nM
SMILES: C=CCN1C(=O)/C(=N/c2ccc(Cl)c(Cl)c2)c2ccccc21

- Ki (Galanin receptor type 3): 89 nM
SMILES: C#CCN1C(=O)/C(=N/c2cccc(C(F)(F)F)c2)c2ccccc21

- Ki (Galanin receptor type 3): 52 nM
SMILES: CCC(CC)N1C(=O)/C(=N/c2ccc(C(F)(F)F)cc2)c2ccccc21
